In publication PMC12920416, “Preclinical development of [^18F]TAAR1-2203 as a PET radioligand for imaging TAAR1 expression and receptor occupancy” (European Journal of Nuclear Medicine and Molecular Imaging, 2025):

What was measured:
[1] = target: T1, TAAR1 (Mus musculus, UniProt Q923Y8); assay: Dynamic PET imaging, baseline vs blockade; type: in vivo, CD1 mice
T1 construct: peripheral organs that express endogenous TAAR1; tissue Charles River (wild-type); F. Hoffmann-La Roche Ltd. (TAAR1 knock-out and matched controls); host or cells: mouse pancreas, kidney, liver, brain
T1 sequence (Q923Y8 whole entry): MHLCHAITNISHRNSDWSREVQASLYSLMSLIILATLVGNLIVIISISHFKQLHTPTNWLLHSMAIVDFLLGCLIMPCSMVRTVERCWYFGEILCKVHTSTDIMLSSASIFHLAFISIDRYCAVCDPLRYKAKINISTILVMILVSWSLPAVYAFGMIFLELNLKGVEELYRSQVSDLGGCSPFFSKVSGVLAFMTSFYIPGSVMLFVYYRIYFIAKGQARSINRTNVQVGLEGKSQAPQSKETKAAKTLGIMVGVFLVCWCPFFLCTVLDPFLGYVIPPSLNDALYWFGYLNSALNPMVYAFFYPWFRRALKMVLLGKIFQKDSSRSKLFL
Description: (§1) Dynamic PET imaging was performed for 60 min in female C57BL/6 mice, as well as in TAAR1 knock-out mice and respective controls, under 1–2% (v/v) isoflurane anaesthesia as previously reported. [^18F]TAAR1-2203 (1.5 MBq in 100 µL saline) was administered via tail vein injection. For blocking studies, TAAR1 agonist RO5425754 (4 mg/kg) was injected 5 min prior to radiotracer administration. Dynamic PET scans were acquired using a G8 PET/CT scanner (Sofie Biosciences, Culver, CA, USA) and analyzed with PMOD software (PMOD Technologies Ltd., Zurich, Switzerland). Radioactivity was decay-corrected and expressed as standardized uptake values (SUVs), normalized to body weight and injected dose.

[2] = target: T1, TAAR1; assay: Dynamic PET imaging, TAAR1 knockout vs wild-type mice; type: in vivo
Description: as §1

[3] = Serum stability, rat serum; type: in vitro ADME; settings: 60 min, 37 °C
Description: The stability of [^18F]TAAR1-2203 was assessed in mouse, rat, NHP, and human serum. Aliquots (400 µL) of serum were preincubated at 37 °C for 5 min, followed by the addition of [^18F]TAAR1-2203 (20 µL, 300 µCi/11.1 MBq). After 60 min, 200 µL of each sample was collected, quenched with ice-cold MeCN (200 µL), centrifuged at 10,000 g for 5 min, and analyzed by radio-HPLC (XBridge C18 column, 3.5 μm, 4.6 mm × 150 mm; CH3CN/H2O 35:65 with 0.1% TEA; flow rate 1.0 mL/min). Experiments in PBS served as negative controls, and benfluorex hydrochloride was used as a positive control.

[4] = Plasma protein binding of tracer, mouse plasma; type: in vitro ADME; settings: radiotracer, 10 min incubation, ultrafiltration, read-out: Free fraction in mouse plasma
Description: (§2) Plasma protein binding of [^18F]TAAR1-2203 was determined in mouse, rat, NHP, and human plasma. Plasma samples (150 µL, n = 3) were preincubated at 37 °C for 5 min before addition of [^18F]TAAR1-2203 (10 µCi, 0.37 MBq). After 10 min of incubation, 300 µL of ice-cold PBS were added. Samples (300 µL) were then transferred onto Amicon® centrifugal filter units (10 kDa cut-off) and centrifuged at 2100 g for 15 min at 4 °C. Filtrates were washed with 300 µL PBS and centrifuged again. Radioactivity in the filtrate and protein-bound fractions was measured using a Packard Cobra 5002/5003 gamma counter.

[5] = Plasma protein binding of tracer, NHP plasma; type: in vitro ADME; settings: non-human primate, radiotracer, 10 min incubation, ultrafiltration, read-out: Free fraction in NHP plasma
Description: as §2

[6] = Microsomal stability, mouse liver microsomes; type: in vitro ADME; settings: after 60 min, 37 °C, printed as rodent microsomes
Description: Microsomal stability of [^18F]TAAR1-2203 was evaluated using mouse, rat, NHP, and human liver microsomes. Potassium phosphate buffer (340 µL, 0.5 M, pH 7.4) was combined with NADPH regenerating solution (40 µL, 10 mM). Radiotracer solution (10 µL, 150 µCi, 5.5 MBq) was added, and the mixture was preincubated at 37 °C for 5 min. Liver microsomes (20 µL) were subsequently added. Incubations were carried out at 37 °C with gentle shaking. At 30 and 60 min, 200 µL aliquots were quenched with ice-cold MeCN (200 µL), centrifuged at 10,000 g for 5 min, and analyzed using an AR-2000 radio-TLC imaging scanner (Eckert & Ziegler).

[7] = Plasma protein binding of tracer, human plasma; type: in vitro ADME; settings: radiotracer, 10 min incubation, ultrafiltration, read-out: Free fraction in human plasma
Description: as §2

[8] = target: T1, TAAR1; assay: In vitro autoradiography, mouse pancreas and kidney sections; type: binding, CD1 mice; settings: tracer 5–8 nM; blockade with RO5333943 or RO5425754 at 10 µM
Description: In vitro autoradiography experiments with [^18F]TAAR1-2203 were conducted on mouse and rat pancreas, kidney and brain tissue sections, respectively. Tissue Sect. (20 μm) were thawed on ice for 10 min and preincubated in assay buffer (50 mM Tris, pH 7.4) for 10 min. Subsequently, sections were incubated with [^18F]TAAR1-2203 for 40 min at ambient temperature. For blocking studies, structurally distinct TAAR1 agonists, RO5333943 or RO5425754, were added in excess to the assay buffer at a final concentration of 10 µM. After incubation, sections were washed in assay buffer for 2 min on ice and dipped briefly in water (2 × 5 s), followed by drying and exposure to a phosphor imager plate for 60 min. Imager plates were scanned on an Amersham Typhoon analyzer system, and images were analyzed using ImageQuant TL 8.1, as previously reported.

[9] = Ex vivo radiometabolite analysis; type: in vivo, CD1 mice; settings: 30 min post-injection, n = 3
Description: Female CD1 mice (20 weeks old, n = 3) were injected with [^18F]TAAR1-2203 (100 µCi, 3.7 MBq) and sacrificed 30 min post-injection. Brain, pancreas, and plasma samples were collected. Organs were homogenized in ice-cold acetonitrile (CH3CN). Plasma was obtained by centrifugation at 1400 rpm for 5 min at 4 °C, and proteins were precipitated with repeated CH3CN extraction until clear supernatants were obtained. Analytical samples were spiked with non-radioactive TAAR1-2203 and analyzed by radio-HPLC (XBridge C18 column; CH3CN/H₂O 35:65, with 0.1% TEA; flow rate 1.0 mL/min). Parent tracer fractions were determined as the percentage of intact [^18F]TAAR1-2203 relative to total detected radioactivity.

[10] = PET, blockade with RO5425754 4 mg/kg

## Cc1c([18F])cccc1[C@H]1COC(N)=N1 [[^18F]TAAR1-2203]
[1]; PET imaging and in vitro autoradiography
  Specific binding in the CNS: no specific TAAR1 binding was observed
[1]; [10]
  Tracer uptake in kidney (AUC 0–60 min), blockade vs baseline: significant reduction
  Tracer uptake in pancreas (AUC 0–60 min), blockade vs baseline: significant reduction
[2]
  Kidney AUC0−60 min in TAAR1 KO vs WT mice: significant reduction
[3]
  Intact parent tracer in rat serum: > 99%
[4]
  fraction unbound at 10 min, 2.47 MBq/mL: ~0.6
[5]
  fraction unbound at 10 min, 2.47 MBq/mL: ~0.6
[6]
  Intact tracer in mouse liver microsomes: > 98%
[7]
  fraction unbound at 10 min: ~0.6
[8]
  Reduction of tracer binding, mouse kidney: greater than 70%
  Reduction of tracer binding, mouse pancreas: more than 50%
[9]
  Parent tracer fraction in brain: exceeded 80%
  Parent tracer fraction in pancreas: exceeded 80%
  Parent tracer fraction in plasma: exceeded 80%
